A short description of data set [1]: Single pass perfusion in rat: GI wall and liver metabolism, biliary excretion. In kind it is in vitro ADME. The settings on record: for f (g) Xf (h): GI wall metabolism f(g) x liver metabolism f(h). The method, then:
Single pass perfusion studies in rat were performed to assess gastrointestinal (GI) wall metabolism (f(g)), liver metabolism (f(h)), and biliary excretion. The method used has been described in Pang, C. S., J. Pharmacol. Exp. Therapeutics, 333, pp. 788-798 (1984).

In data set [2] the test system is Human whole blood, IL-1β production. The experiment in a line: Whole blood assay for IL-1β production. In kind it is cell-based. The following applies: LPS-stimulated whole blood, IL-1β by ELISA. In outline:
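LPS-stimulated (5.0 ng/ml final) human whole blood incubated with test compound in saline (or plasma/PBS-5% DMSO for hydrophobic compounds) at 30° C for 16-18 hr. Plasma IL-1β then measured by ELISA at 1:200 dilution, against no-LPS, no-inhibitor and vehicle controls.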
(ELISA stands for enzyme-linked immunosorbent assay.)

For data set [3], the target named is T1, Caspase-1 (Homo sapiens, UniProt P29466).
T1 sequence (P29466 120-297 limits assumed): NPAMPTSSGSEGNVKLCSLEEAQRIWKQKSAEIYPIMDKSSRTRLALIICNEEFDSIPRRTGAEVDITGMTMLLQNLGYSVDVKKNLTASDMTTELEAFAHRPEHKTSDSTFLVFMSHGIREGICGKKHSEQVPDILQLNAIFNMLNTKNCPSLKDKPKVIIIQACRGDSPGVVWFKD
T1 sequence (P29466 317-404 limits assumed): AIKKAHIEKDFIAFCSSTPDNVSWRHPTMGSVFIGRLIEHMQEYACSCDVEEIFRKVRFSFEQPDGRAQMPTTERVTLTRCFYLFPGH
The experiment in a line: Caspase-1 enzyme inhibition (Ki). The data set is classed as biochemical. In outline: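 Ki obtained by fitting rate versus inhibitor concentration to the Morrison tight-binding equation for competitive inhibitors, with pNA release read at 405 nm at 37 °C. Substrate Suc-YVAD-pNA (80 μM final) added after 15 min enzyme–inhibitor preincubation in Tris pH 7.5 buffer with DTT and CHAPS.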

Where [4] appears, read: substrate Suc-YVAD-pNA 80 μM, 37° C., pH 7.5.

The structures appear in SMILES notation. pIC50, pKi: −log10 of the molar value. Like-named read-outs stand apart in the source and are kept apart here.

What is called pIC50 is −log10 of the IC50, conventionally taken in molar units. The low end stands for a high IC50, the high end for a low IC50. The term pKi denotes the negative decadic logarithm of the Ki, by convention in mol/L. Higher therefore signals a low Ki.

`C[C@H](NC(=O)c1ccc(N)c(Cl)c1)C(=O)N1CCC[C@H]1C(=O)N[C@H](C=O)CC(=O)O` [Example 122b, 3-({-[2-(4-Amino-3-chloro-benzoylamino)-propionyl]-pyrrolidine-2-carbonyl}-amino)-4-oxo-butyric acid]: in data set [1], the “Biliary Excretion” value is recorded as “A (category “A” indicates <5%)” and the “f (g) Xf (h)” value is on record as “C (Category “C” indicates 0.5-0.75)”. Besides, the pIC50 in data set [2] is above 5.60. The same molecule gave a pKi in data set [3] (setting [4]) above 8.00.

For the molecule `CC(C)[C@H](NC(=O)c1cccc2c1-c1ccccc1C2=O)C(=O)N1CCC[C@H]1C(=O)N[C@H](C=O)CC(=O)O` [Example 5k], in data set [1], the “Biliary Excretion” value was “A (category “A” indicates <5%)” and the “f (g) Xf (h)” value was “B (Category “B” indicates 0.25-0.49)”. The pIC50 in data set [2] is 5.12 to 5.60. Also, the negative-log Ki (pKi) in data set [3] is above 8.00. In data set [3] (setting [4]), this molecule showed a pKi above 8.00.

`C[C@H](NC(=O)c1cccc2c1-c1ccccc1C2=O)C(=O)N1CCC[C@H]1C(=O)N[C@H](C=O)CC(=O)O` [Example 122a]: in data set [1], the “Biliary Excretion” value is given as “A (category “A” indicates <5%)” and the “f (g) Xf (h)” value is recorded as “B (Category “B” indicates 0.25-0.49)”. In data set [2], this molecule showed a pIC50 above 5.60. This molecule had a pKi in data set [3] (setting [4]) above 8.00.

For `COc1ccc(C(=O)NC(C(=O)N2N=C(C(C)(C)C)SC2C(=O)NC(C=O)CC(=O)O)C(C)C)cc1` (centres unmarked) [Example 46b], in data set [1], the “Biliary Excretion” value was “C (Category “C” indicates >10%)” and the “f (g) Xf (h)” value is given as “B (Category “B” indicates 0.25-0.49)”. Besides, in data set [2], the pIC50 is 5.12 to 5.60. Also, the pKi in data set [3] (setting [4]) is above 8.00.
